Experimental data reported in PubChem BioAssay AID248 (DTP/NCI, 2004).
Values joined by “and” are separate entries in the source; they are usually repeats but may differ in a detail not shown here. Equal entries are not always repeated. Inconclusive results and toxic doses are left out.

System: L1210 leukemia ip in BDF1 mice, survival T/C
Assay: NCI In Vivo Anticancer Drug Screen. Data for tumor model L1210 Leukemia (intraperitoneal) in B6D2F1 (BDF1) mice
Details: higher = longer survival
Outline: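 Read-out is survival time, reported as the treated-group measurement over the vehicle-control measurement.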

Nc1nc(=S)c2[nH]cnc2[nH]1
T/C (endpoint: mean survival time, dose: 6.0 mg/kg/injection, schedule: Q01DX Z (ip), vehicle: carboxymethylcellulose (CMC)): 98 % of control
T/C (endpoint: mean survival time, dose: 7.0 mg/kg/injection, schedule: Q01DX001 (ip), vehicle: saline): 104 % of control and 122 % of control
T/C (endpoint: mean survival time, dose: 8.0 mg/kg/injection, schedule: Q01DX Z (ip), vehicle: carboxymethylcellulose (CMC)): 106 % of control
T/C (endpoint: mean survival time, dose: 8.0 mg/kg/injection, schedule: Q04DX008 (ip), vehicle: alkali diluted with saline): 154 % of control
T/C (endpoint: mean survival time, dose: 8.0 mg/kg/injection, schedule: Q07DX008 (ip), vehicle: alkali diluted with saline): 153 % of control
T/C (endpoint: mean survival time, dose: 8.3 mg/kg/injection, schedule: Q01DX Z (ip), vehicle: carboxymethylcellulose (CMC)): 94 % of control
T/C (endpoint: mean survival time, dose: 9.0 mg/kg/injection, schedule: Q01DX Z (ip), vehicle: carboxymethylcellulose (CMC)): 96 % of control
T/C (endpoint: mean survival time, dose: 10.0 mg/kg/injection, schedule: Q01DX010 (ip), vehicle: other): 115 % of control
T/C (endpoint: mean survival time, dose: 12.0 mg/kg/injection, schedule: Q04DX004 (ip), vehicle: alkali diluted with saline): 152 % of control
T/C (endpoint: mean survival time, dose: 12.0 mg/kg/injection, schedule: Q04DX006 (ip), vehicle: alkali diluted with saline): 151 % of control
T/C (endpoint: mean survival time, dose: 13.0 mg/kg/injection, schedule: Q01DX001 (ip), vehicle: carboxymethylcellulose (CMC)): 152 % of control
T/C (endpoint: mean survival time, dose: 16.0 mg/kg/injection, schedule: Q01DX Z (sc), vehicle: saline): 106 % of control
T/C (endpoint: mean survival time, dose: 20.0 mg/kg/injection, schedule: Q01DX001 (ip), vehicle: alkali diluted with saline): 153 % of control
T/C (endpoint: mean survival time, dose: 20.0 mg/kg/injection, schedule: Q04DX003 (ip), vehicle: alkali diluted with saline): 154 % of control
T/C (endpoint: mean survival time, dose: 24.0 mg/kg/injection, schedule: Q03DX006 (ip), vehicle: saline): 107 % of control
T/C (endpoint: mean survival time, dose: 24.0 mg/kg/injection, schedule: Q07DX003 (ip), vehicle: saline): 152 % of control
T/C (endpoint: mean survival time, dose: 24.0 mg/kg/injection, schedule: Q## X008 (ip), vehicle: alkali diluted with saline): 116 % of control
T/C (endpoint: mean survival time, dose: 24.0 mg/kg/injection, schedule: Q## X024 (ip), vehicle: alkali diluted with saline): 102 % of control
T/C (endpoint: mean survival time, dose: 27.0 mg/kg/injection, schedule: Q07DX004 (ip), vehicle: alkali diluted with saline): 153 % of control
T/C (endpoint: mean survival time, dose: 30.0 mg/kg/injection, schedule: Q04DX003 (ip), vehicle: alkali diluted with saline): 150 % of control
T/C (endpoint: mean survival time, dose: 36.0 mg/kg/injection, schedule: Q## X016 (ip), vehicle: alkali diluted with saline): 105 % of control
T/C (endpoint: mean survival time, dose: 36.0 mg/kg/injection, schedule: Q## X024 (ip), vehicle: alkali diluted with saline): 98 % of control
T/C (endpoint: mean survival time, dose: 40.0 mg/kg/injection, schedule: Q07DX004 (ip), vehicle: alkali diluted with saline): 152 % of control
T/C (endpoint: mean survival time, dose: 50.0 mg/kg/injection, schedule: Q01DX001 (ip), vehicle: saline): 118 % of control
T/C (endpoint: mean survival time, dose: 54.0 mg/kg/injection, schedule: Q## X008 (ip), vehicle: alkali diluted with saline): 105 % of control
T/C (endpoint: mean survival time, dose: 54.0 mg/kg/injection, schedule: Q## X016 (ip), vehicle: alkali diluted with saline): 97 % of control
T/C (endpoint: mean survival time, dose: 60.0 mg/kg/injection, schedule: Q07DX004 (ip), vehicle: alkali diluted with saline): 152 % of control
T/C (endpoint: mean survival time, dose: 67.0 mg/kg/injection, schedule: Q01DX001 (ip), vehicle: alkali diluted with saline): 152 % of control
T/C (endpoint: mean survival time, dose: 80.0 mg/kg/injection, schedule: Q01DX001 (ip), vehicle: alkali diluted with saline): 150 % of control
T/C (endpoint: mean survival time, dose: 90.0 mg/kg/injection, schedule: Q07DX004 (ip), vehicle: alkali diluted with saline): 120 % of control
T/C (endpoint: mean survival time, dose: 90.0 mg/kg/injection, schedule: Q07DX006 (ip), vehicle: alkali diluted with saline): 118 % of control
T/C (endpoint: mean survival time, dose: 96.0 mg/kg/injection, schedule: Q07DX003 (ip), vehicle: saline): 103 % of control
T/C (endpoint: mean survival time, dose: 100.0 mg/kg/injection, schedule: Q01DX001 (ip), vehicle: alkali diluted with saline): 150 % of control
T/C (endpoint: mean survival time, dose: 100.0 mg/kg/injection, schedule: Q01DX001 (ip), vehicle: saline): 112 % of control
T/C (endpoint: mean survival time, dose: 106.0 mg/kg/injection, schedule: Q04DX002 (ip), vehicle: alkali diluted with saline): 98 % of control
T/C (endpoint: mean survival time, dose: 112.0 mg/kg/injection, schedule: Q01DX001 (ip), vehicle: saline): 98 % of control
T/C (endpoint: mean survival time, dose: 150.0 mg/kg/injection, schedule: Q01DX001 (ip), vehicle: alkali diluted with saline): 103 % of control
T/C (endpoint: mean survival time, dose: 448.0 mg/kg/injection, schedule: Q01DX001 (ip), vehicle: saline): 119 % of control
T/C (endpoint: mean survival time, dose: 16.0 micrograms/kg/injection, schedule: Q01DX015 (ip), vehicle: alkali diluted with saline): 100 % of control
T/C (endpoint: mean survival time, dose: 32.0 micrograms/kg/injection, schedule: Q01DX015 (ip), vehicle: alkali diluted with saline): 107 % of control
T/C (endpoint: mean survival time, dose: 63.0 micrograms/kg/injection, schedule: Q01DX015 (ip), vehicle: alkali diluted with saline): 107 % of control
T/C (endpoint: mean survival time, dose: 125.0 micrograms/kg/injection, schedule: Q01DX015 (ip), vehicle: alkali diluted with saline): 116 % of control
T/C (endpoint: mean survival time, dose: 196.0 micrograms/kg/injection, schedule: Q01DX Z (ip), vehicle: carboxymethylcellulose (CMC)): 122 % of control
T/C (endpoint: mean survival time, dose: 250.0 micrograms/kg/injection, schedule: Q01DX015 (ip), vehicle: alkali diluted with saline): 103 % of control
T/C (endpoint: median survival time, dose: 4.0 mg/kg/injection, schedule: Q01DX009 (ip), vehicle: other): 150 % of control
T/C (endpoint: median survival time, dose: 16.0 mg/kg/injection, schedule: Q01DX009 (ip), vehicle: other): 116 % of control
